Earlier results on 4 compounds are cited in patent EP4631497A1, “LIPOSOMAL COMPOSITION FOR TOPICAL ADMINISTRATION” (priority 2024, dated 2025).

Read-outs that look alike come from different tables or passages of the source.

On to `O=C1c2c(O)cc(O)cc2O[C@H](c2ccc(O)c(O)c2)[C@H]1O` [Taxifolin], for which, for the setting “bei 25°C”, the Wasserlöslichkeit is < 1 mg/mL.

As for `C[C@@H]1O[C@@H](O[C@H]2[C@H](Oc3cc(O)c4c(c3)O[C@H](c3ccc(O)cc3)CC4=O)O[C@H](CO)[C@@H](O)[C@@H]2O)[C@H](O)[C@H](O)[C@H]1O` [Naringin], the Wasserlöslichkeit (water) was < 1 mg/mL.

For `Oc1ccc(C=Cc2cc(O)cc(O)c2)cc1` [Resveratrol], the Wasserlöslichkeit (bei 25°C) is recorded as < 0,1 mg/ml.

On to `O=C(CCc1ccc(O)cc1)c1c(O)cc(O)cc1O` [Phloretin], for which the Wasserlöslichkeit (bei 25°C) is reported as < 0,1 mg/ml.
